From patent US9278068B2, “Vesicle compositions” (Sensulin LLC, priority 2011, dated 2016)

These molecules were tested on HeLa cells (assay: MTT assay for cytotoxicity). Conditions: 40 nM, 2 h.
Method: The cytotoxicity of the boronic acid derivatives from Table 1 was studied by MTT assay. 150,000 HeLa cells were plated in 96 well plates on the night before the experiments. On the day of experiments, the cells were treated with the boronic acid derivatives at three different concentrations (40 nM, 80 nM, and 160 nM) for 2 h. At the end of the incubation, MTT assays (In-Vitro toxicology MTT based assay kit, Sigma Aldrich, MO) were performed according to the manufacturer's protocol.

Molecule	MTT (% Cell Survival) 40 nM
OB(O)c1cccc2c1Sc1ccccc1S2 [thianthrene-1-boronic acid]	64.19%
C=C(B(O)O)c1ccccc1 [1-phenylvinylbornic acid]	66.08%
NC(=O)c1cccc(B(O)O)c1 [3-aminocarbonylphenylboronic acid]	101.02%
OB(O)c1cccs1 [2-thienylboronic acid]	53.48%
OB(O)c1ccccc1Cl [2-chlorophenylboronic acid]	86.3068%
OB(O)c1ccc2ccccc2c1 [2-napthylboronic acid]	24.3831%
OB(O)c1cscc1Br [3-bromothiophene-4-boronic acid]	76.45%
O=Cc1sccc1B(O)O [2-formyl-3-thiopheneboronic acid]	55.3376%
OB(O)c1cccc2cnccc12 [5-isoquinolineboronic acid]	75.80%
OB(O)c1cccc2c1oc1ccccc12 [4-dibenzofuranboronic acid]	71.48%
O=[N+]([O-])/C=C/c1cccc(B(O)O)c1 [3-[(E)-2-nitrovinyl]phenylboronic acid]	116.00%
OB(O)c1ccc(Br)nc1 [2-bromopyridine-5-boronic acid]	95.1013%

Same assay, conditions: 80 nM, 2 h

Molecule	MTT (% Cell Survival) 80 nM
OB(O)c1cccc2c1Sc1ccccc1S2 [thianthrene-1-boronic acid]	61.32%
C=C(B(O)O)c1ccccc1 [1-phenylvinylbornic acid]	67.23%
NC(=O)c1cccc(B(O)O)c1 [3-aminocarbonylphenylboronic acid]	77.93%
OB(O)c1cccs1 [2-thienylboronic acid]	75.76%
OB(O)c1ccccc1Cl [2-chlorophenylboronic acid]	60.0002%
OB(O)c1ccc2ccccc2c1 [2-napthylboronic acid]	37.2192%
OB(O)c1cscc1Br [3-bromothiophene-4-boronic acid]	95.90%
O=Cc1sccc1B(O)O [2-formyl-3-thiopheneboronic acid]	40.3684%
OB(O)c1cccc2cnccc12 [5-isoquinolineboronic acid]	60.84%
OB(O)c1cccc2c1oc1ccccc12 [4-dibenzofuranboronic acid]	75.50%
O=[N+]([O-])/C=C/c1cccc(B(O)O)c1 [3-[(E)-2-nitrovinyl]phenylboronic acid]	96.38%
OB(O)c1ccc(Br)nc1 [2-bromopyridine-5-boronic acid]	120.589%

Same assay, conditions: 160 nM, 2 h

Molecule	MTT (% Cell Survival) 160 nM
OB(O)c1cccc2c1Sc1ccccc1S2 [thianthrene-1-boronic acid]	81.10%
C=C(B(O)O)c1ccccc1 [1-phenylvinylbornic acid]	58.91%
NC(=O)c1cccc(B(O)O)c1 [3-aminocarbonylphenylboronic acid]	29.19%
OB(O)c1cccs1 [2-thienylboronic acid]	61.19%
OB(O)c1ccccc1Cl [2-chlorophenylboronic acid]	45.45%
OB(O)c1ccc2ccccc2c1 [2-napthylboronic acid]	21.1%
OB(O)c1cscc1Br [3-bromothiophene-4-boronic acid]	97.49%
O=Cc1sccc1B(O)O [2-formyl-3-thiopheneboronic acid]	46.21%
OB(O)c1cccc2cnccc12 [5-isoquinolineboronic acid]	41.69%
OB(O)c1cccc2c1oc1ccccc12 [4-dibenzofuranboronic acid]	70.50%
O=[N+]([O-])/C=C/c1cccc(B(O)O)c1 [3-[(E)-2-nitrovinyl]phenylboronic acid]	73.93%
OB(O)c1ccc(Br)nc1 [2-bromopyridine-5-boronic acid]	35.78%

What follows are molecules tested on NF-κB (assay: NF-κB assay for inflammation (nuclear translocation of NF-κB, immunocytochemistry, PCC)). Conditions: HeLa cells, 40 nM, 2 h; PCC between nuclear and cytoplasmic fraction of NF-κB.
Method: 15,000 HeLa cells were plated in 96 well plates the night before the experiments. On the day of the experiments, the cells were treated with the boronic acids (Table 1, below) at three different concentrations (40 nM, 80 nM, and 160 nM) for 2 h. At the end of the incubation, cells were washed with phosphate buffered saline (PBS) and were fixed in 4% paraformaldehyde for 15 min and permeablized with 0.01% Triton X-100 in PBS for 10 min. The cells were washed with PBS three times. Nonspecific sites were blocked with 5% bovine serum albumin (BSA) in PBS and incubated with the Anti-NF-κB for 1 h, followed by incubation with fluorescein isothiocyanate (FITC)-labeled secondary antibody. After washing the cells at the end of the incubation, the cells were treated with 4′,6-diamidino-2-phenylindole (DAPI) for 1 min and kept at 4° C. until further analysis. Images of the cells were acquired with a Beckman-Coulter 100 automated high-throughput microscope system and analyzed using Cytseer software (Vala Sciences, CA). The co-localization of NF-κB was quantified by measuring the PCC between the nuclear and cytoplasmic fraction of the NF-κB molecule. The PCC is a measure of the overlap between the pixel intensities of the nuclear and NF-κB images of the same cell. The PCC values can range from −1 to 1. […] A negative correlation (negative PCC value) indicates an absence of nuclear translocation.

Molecule	Inflammation (PCC) 40 nM
OB(O)c1cccc2c1Sc1ccccc1S2 [thianthrene-1-boronic acid]	−0.0683
C=C(B(O)O)c1ccccc1 [1-phenylvinylbornic acid]	−0.1145
NC(=O)c1cccc(B(O)O)c1 [3-aminocarbonylphenylboronic acid]	−0.0696
OB(O)c1cccs1 [2-thienylboronic acid]	−0.121
OB(O)c1ccccc1Cl [2-chlorophenylboronic acid]	−0.0957
OB(O)c1ccc2ccccc2c1 [2-napthylboronic acid]	0.06402
OB(O)c1cscc1Br [3-bromothiophene-4-boronic acid]	−0.0695
O=Cc1sccc1B(O)O [2-formyl-3-thiopheneboronic acid]	−0.0993
OB(O)c1cccc2cnccc12 [5-isoquinolineboronic acid]	−0.0412
OB(O)c1cccc2c1oc1ccccc12 [4-dibenzofuranboronic acid]	−0.0736
O=[N+]([O-])/C=C/c1cccc(B(O)O)c1 [3-[(E)-2-nitrovinyl]phenylboronic acid]	−0.0456
OB(O)c1ccc(Br)nc1 [2-bromopyridine-5-boronic acid]	0.00604

Same assay, conditions: HeLa cells, 80 nM, 2 h; PCC between nuclear and cytoplasmic fraction of NF-κB

Molecule	Inflammation (PCC) 80 nM
OB(O)c1cccc2c1Sc1ccccc1S2 [thianthrene-1-boronic acid]	0.0268
C=C(B(O)O)c1ccccc1 [1-phenylvinylbornic acid]	0.03776
NC(=O)c1cccc(B(O)O)c1 [3-aminocarbonylphenylboronic acid]	0.07022
OB(O)c1cccs1 [2-thienylboronic acid]	−0.0343
OB(O)c1ccccc1Cl [2-chlorophenylboronic acid]	.00949
OB(O)c1ccc2ccccc2c1 [2-napthylboronic acid]	0.2437
OB(O)c1cscc1Br [3-bromothiophene-4-boronic acid]	0.1568
O=Cc1sccc1B(O)O [2-formyl-3-thiopheneboronic acid]	−0.0793
OB(O)c1cccc2cnccc12 [5-isoquinolineboronic acid]	0.02463
OB(O)c1cccc2c1oc1ccccc12 [4-dibenzofuranboronic acid]	−0.0438
O=[N+]([O-])/C=C/c1cccc(B(O)O)c1 [3-[(E)-2-nitrovinyl]phenylboronic acid]	−0.0517
OB(O)c1ccc(Br)nc1 [2-bromopyridine-5-boronic acid]	0.078

Same assay, conditions: HeLa cells, 160 nM, 2 h; PCC between nuclear and cytoplasmic fraction of NF-κB

Molecule	Inflammation (PCC) 160 nM
OB(O)c1cccc2c1Sc1ccccc1S2 [thianthrene-1-boronic acid]	0.1094
C=C(B(O)O)c1ccccc1 [1-phenylvinylbornic acid]	0
NC(=O)c1cccc(B(O)O)c1 [3-aminocarbonylphenylboronic acid]	0.1748
OB(O)c1cccs1 [2-thienylboronic acid]	0
OB(O)c1ccccc1Cl [2-chlorophenylboronic acid]	0.09948
OB(O)c1ccc2ccccc2c1 [2-napthylboronic acid]	0.09593
OB(O)c1cscc1Br [3-bromothiophene-4-boronic acid]	0.1528
O=Cc1sccc1B(O)O [2-formyl-3-thiopheneboronic acid]	0.1262
OB(O)c1cccc2cnccc12 [5-isoquinolineboronic acid]	0.2784
OB(O)c1cccc2c1oc1ccccc12 [4-dibenzofuranboronic acid]	−0.128
O=[N+]([O-])/C=C/c1cccc(B(O)O)c1 [3-[(E)-2-nitrovinyl]phenylboronic acid]	0.2058
OB(O)c1ccc(Br)nc1 [2-bromopyridine-5-boronic acid]	0.1446

Same assay, conditions: HeLa cells; boronic acids 80 nM, 2 hrs; LPS positive control

Molecule	nuclear or cytoplasmic localization of NF-κB (FIG. 4 images)
OB(O)c1cccc2cnccc12 [5-isoquinolineboronic acid]	predominantly nuclear NF-κB
lipopolysaccharide [LPS, reference compound]	nuclear translocation of NF-κB
